The results in this text go back to US10870647B2, “Imidazopyridine derivative, method for preparing same, and pharmaceutical composition containing same as active ingredient for preventing or treating cancer” (DAEGU-GYEONGBUK MEDICAL INNOVATION FOUNDATION, priority 2016, dated 2020).

Assay in all cases: Kinase selectivity, scanMAX Kinase assay panel (DiscoverX), % control at 1 uM
Common to all, as to format: binding

The target in experiment [1] is T1, scanMAX Kinase assay panel (Homo sapiens, UniProt Q8TDX7).
T1 construct: purchased DiscoverX
The conditions noted are these: NEK7; 1 uM; read-out: Percent Control (%). In outline:
(§1)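 Read-out is percent of control, derived from the signal with compound relative to positive and negative controls: (compound − positive)/(negative − positive) × 100. Each enzyme received test drug at 1 uM in DMSO, and values under 35% count as active.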

The target in experiment [2] is T2, scanMAX Kinase assay panel (Homo sapiens, UniProt P09619).
T2 construct: purchased DiscoverX
The conditions noted are these: PDGFRB; 1 uM; read-out: Percent Control (%). The essentials:
as §1

The target of experiment [3] is T3, scanMAX Kinase assay panel (Homo sapiens, UniProt Q9C098).
T3 construct: purchased DiscoverX
The conditions noted are these: DCAMKL3; 1 uM; read-out: Percent Control (%). The essentials:
as §1

Experiment [4] addresses T4, scanMAX Kinase assay panel (Homo sapiens, UniProt Q13163).
T4 construct: purchased DiscoverX
T4 sequence (Q13163 1-448): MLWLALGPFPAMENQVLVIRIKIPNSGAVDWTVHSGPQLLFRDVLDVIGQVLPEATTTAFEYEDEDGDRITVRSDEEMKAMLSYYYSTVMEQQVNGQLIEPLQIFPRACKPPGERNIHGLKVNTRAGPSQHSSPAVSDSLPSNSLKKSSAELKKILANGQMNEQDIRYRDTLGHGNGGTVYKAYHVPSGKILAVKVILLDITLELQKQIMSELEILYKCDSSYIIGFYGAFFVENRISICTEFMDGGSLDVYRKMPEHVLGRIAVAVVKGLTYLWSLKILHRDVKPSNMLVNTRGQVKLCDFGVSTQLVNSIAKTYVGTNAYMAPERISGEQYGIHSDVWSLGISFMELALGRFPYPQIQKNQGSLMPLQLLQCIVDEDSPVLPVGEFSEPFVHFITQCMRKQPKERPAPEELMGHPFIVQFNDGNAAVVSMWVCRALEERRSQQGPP
The note with it: MEK5; 1 uM; read-out: Percent Control (%). In outline:
as §1

The target in experiment [5] is T5, scanMAX Kinase assay panel (Homo sapiens, UniProt Q2M2I8).
T5 construct: purchased DiscoverX
The note with it: AAK1; 1 uM; read-out: Percent Control (%). In outline: as §1

In experiment [6] the target is T6, scanMAX Kinase assay panel (Homo sapiens, UniProt O15111).
T6 construct: purchased DiscoverX
T6 sequence (O15111 1-745): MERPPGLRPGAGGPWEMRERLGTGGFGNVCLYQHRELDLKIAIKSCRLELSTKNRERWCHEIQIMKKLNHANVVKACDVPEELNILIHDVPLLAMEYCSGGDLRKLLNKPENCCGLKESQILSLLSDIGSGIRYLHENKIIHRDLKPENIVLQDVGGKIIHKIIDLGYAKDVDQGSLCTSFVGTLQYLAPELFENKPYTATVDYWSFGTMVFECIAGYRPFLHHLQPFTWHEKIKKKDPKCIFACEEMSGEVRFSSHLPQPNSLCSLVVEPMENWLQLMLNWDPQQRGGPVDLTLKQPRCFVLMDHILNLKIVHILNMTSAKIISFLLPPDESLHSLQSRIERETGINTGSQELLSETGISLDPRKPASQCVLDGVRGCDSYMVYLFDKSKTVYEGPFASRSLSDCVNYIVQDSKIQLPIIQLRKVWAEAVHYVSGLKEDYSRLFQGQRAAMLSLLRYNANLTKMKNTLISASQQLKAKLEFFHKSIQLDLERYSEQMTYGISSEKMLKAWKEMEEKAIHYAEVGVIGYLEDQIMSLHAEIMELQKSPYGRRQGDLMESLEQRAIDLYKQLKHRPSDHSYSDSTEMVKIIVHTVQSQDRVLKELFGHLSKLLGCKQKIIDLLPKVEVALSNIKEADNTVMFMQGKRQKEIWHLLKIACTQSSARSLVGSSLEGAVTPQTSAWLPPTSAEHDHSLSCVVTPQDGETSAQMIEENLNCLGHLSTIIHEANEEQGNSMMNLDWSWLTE
The conditions noted are these: IKK-alpha; 1 uM; read-out: Percent Control (%). In outline:
as §1

The target in experiment [7] is T7, scanMAX Kinase assay panel (Homo sapiens, UniProt P37173).
T7 construct: purchased DiscoverX
The conditions noted are these: TGFBR2; 1 uM; read-out: Percent Control (%). The essentials: as §1

In experiment [8] the target is T8, scanMAX Kinase assay panel (Homo sapiens, UniProt P29317).
T8 construct: purchased DiscoverX
The note with it: EPHA2; 1 uM; read-out: Percent Control (%). The essentials: as §1

The target in experiment [9] is T9, scanMAX Kinase assay panel (Homo sapiens, UniProt P15056).
T9 construct: purchased DiscoverX
The conditions noted are these: BRAF; 1 uM; read-out: Percent Control (%). The essentials:
as §1

Experiment [10] has as its target T10, scanMAX Kinase assay panel (Homo sapiens, UniProt P11309).
T10 construct: purchased DiscoverX
The note with it: PIM1; 1 uM; read-out: Percent Control (%). The essentials:
as §1

T1 sequence (Q8TDX7 whole entry): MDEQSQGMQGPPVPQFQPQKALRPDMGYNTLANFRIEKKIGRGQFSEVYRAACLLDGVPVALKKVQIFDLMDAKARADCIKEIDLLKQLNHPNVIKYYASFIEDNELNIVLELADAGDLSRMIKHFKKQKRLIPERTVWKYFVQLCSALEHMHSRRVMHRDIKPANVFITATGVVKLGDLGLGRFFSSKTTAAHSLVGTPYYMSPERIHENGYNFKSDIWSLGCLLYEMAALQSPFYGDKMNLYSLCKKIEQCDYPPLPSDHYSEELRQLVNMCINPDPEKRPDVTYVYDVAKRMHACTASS
T2 sequence (P09619 33-1106): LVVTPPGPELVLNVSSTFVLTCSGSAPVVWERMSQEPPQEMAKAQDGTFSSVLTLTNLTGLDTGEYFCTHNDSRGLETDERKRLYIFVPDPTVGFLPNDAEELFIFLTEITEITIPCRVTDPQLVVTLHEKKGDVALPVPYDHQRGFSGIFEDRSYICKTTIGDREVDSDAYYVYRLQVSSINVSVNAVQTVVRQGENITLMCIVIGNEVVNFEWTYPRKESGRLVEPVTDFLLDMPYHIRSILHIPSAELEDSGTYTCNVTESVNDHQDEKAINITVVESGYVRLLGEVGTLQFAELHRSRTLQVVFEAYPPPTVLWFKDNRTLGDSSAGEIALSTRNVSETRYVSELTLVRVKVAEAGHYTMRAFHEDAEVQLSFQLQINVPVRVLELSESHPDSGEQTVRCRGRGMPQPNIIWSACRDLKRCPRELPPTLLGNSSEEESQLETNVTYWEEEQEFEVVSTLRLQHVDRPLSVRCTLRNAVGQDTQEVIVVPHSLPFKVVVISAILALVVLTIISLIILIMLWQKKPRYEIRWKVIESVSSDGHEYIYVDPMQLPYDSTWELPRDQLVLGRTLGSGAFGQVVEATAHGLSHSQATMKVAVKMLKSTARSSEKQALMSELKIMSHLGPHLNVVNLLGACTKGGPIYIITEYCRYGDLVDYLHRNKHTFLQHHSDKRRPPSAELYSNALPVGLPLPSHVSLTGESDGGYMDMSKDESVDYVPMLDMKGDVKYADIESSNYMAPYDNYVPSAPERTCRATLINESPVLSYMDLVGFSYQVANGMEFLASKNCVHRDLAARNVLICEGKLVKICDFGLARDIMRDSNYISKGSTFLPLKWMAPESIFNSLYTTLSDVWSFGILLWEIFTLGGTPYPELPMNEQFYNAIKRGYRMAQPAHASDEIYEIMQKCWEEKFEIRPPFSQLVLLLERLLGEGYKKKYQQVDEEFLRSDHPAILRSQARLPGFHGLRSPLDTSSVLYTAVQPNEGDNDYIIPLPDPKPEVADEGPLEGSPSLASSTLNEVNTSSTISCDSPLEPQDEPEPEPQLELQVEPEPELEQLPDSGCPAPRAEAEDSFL
T3 sequence (Q9C098 whole entry): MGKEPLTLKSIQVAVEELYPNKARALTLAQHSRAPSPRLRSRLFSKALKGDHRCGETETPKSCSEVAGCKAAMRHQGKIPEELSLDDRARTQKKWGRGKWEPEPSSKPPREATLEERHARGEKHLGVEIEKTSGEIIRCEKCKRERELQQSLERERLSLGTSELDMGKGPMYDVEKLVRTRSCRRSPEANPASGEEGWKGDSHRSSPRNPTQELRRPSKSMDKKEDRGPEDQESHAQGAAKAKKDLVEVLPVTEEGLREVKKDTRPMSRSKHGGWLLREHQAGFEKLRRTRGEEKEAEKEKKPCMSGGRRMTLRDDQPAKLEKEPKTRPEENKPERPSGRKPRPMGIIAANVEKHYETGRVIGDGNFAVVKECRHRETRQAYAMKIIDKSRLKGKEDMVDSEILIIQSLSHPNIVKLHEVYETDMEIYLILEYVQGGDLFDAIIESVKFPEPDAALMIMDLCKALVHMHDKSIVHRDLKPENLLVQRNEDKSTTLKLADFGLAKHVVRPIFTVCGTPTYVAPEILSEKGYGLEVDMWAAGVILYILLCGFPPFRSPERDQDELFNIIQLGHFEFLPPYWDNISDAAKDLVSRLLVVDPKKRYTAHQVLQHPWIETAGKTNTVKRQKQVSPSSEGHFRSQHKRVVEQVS
T10 sequence (P11309 whole entry): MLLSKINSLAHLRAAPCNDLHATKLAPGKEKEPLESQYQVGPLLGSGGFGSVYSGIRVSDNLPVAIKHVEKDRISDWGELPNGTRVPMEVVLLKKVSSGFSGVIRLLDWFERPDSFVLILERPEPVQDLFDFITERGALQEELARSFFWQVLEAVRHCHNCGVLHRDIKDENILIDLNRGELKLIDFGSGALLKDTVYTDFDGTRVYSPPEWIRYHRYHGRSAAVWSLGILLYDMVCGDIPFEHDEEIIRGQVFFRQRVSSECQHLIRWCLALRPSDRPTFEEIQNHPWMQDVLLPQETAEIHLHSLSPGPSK
T5 sequence (Q2M2I8 whole entry): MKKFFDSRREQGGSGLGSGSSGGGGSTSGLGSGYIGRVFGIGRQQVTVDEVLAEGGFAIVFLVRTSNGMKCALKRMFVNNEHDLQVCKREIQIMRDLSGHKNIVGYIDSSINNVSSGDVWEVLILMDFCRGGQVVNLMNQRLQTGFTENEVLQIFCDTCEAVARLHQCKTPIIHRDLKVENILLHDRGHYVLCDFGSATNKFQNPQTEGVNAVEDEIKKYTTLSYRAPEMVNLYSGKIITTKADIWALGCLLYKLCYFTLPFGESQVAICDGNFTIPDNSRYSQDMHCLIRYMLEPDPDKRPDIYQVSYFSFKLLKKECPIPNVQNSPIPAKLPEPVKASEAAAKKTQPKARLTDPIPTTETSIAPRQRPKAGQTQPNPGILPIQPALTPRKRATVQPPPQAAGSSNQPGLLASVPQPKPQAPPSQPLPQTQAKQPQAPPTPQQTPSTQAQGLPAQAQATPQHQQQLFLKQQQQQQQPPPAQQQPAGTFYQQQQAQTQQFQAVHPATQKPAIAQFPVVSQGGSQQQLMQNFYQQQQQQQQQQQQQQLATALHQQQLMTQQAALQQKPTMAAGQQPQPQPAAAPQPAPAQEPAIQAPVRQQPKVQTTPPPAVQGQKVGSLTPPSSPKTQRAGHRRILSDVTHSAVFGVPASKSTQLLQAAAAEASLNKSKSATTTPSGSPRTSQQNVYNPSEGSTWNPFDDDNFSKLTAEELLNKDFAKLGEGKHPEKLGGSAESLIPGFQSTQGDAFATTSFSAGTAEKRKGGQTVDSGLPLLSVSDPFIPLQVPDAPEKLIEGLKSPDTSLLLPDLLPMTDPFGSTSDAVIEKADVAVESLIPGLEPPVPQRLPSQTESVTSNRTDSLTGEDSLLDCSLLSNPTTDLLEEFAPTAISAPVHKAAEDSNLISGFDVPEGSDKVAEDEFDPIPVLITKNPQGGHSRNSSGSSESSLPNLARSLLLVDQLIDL
T9 sequence (P15056 whole entry): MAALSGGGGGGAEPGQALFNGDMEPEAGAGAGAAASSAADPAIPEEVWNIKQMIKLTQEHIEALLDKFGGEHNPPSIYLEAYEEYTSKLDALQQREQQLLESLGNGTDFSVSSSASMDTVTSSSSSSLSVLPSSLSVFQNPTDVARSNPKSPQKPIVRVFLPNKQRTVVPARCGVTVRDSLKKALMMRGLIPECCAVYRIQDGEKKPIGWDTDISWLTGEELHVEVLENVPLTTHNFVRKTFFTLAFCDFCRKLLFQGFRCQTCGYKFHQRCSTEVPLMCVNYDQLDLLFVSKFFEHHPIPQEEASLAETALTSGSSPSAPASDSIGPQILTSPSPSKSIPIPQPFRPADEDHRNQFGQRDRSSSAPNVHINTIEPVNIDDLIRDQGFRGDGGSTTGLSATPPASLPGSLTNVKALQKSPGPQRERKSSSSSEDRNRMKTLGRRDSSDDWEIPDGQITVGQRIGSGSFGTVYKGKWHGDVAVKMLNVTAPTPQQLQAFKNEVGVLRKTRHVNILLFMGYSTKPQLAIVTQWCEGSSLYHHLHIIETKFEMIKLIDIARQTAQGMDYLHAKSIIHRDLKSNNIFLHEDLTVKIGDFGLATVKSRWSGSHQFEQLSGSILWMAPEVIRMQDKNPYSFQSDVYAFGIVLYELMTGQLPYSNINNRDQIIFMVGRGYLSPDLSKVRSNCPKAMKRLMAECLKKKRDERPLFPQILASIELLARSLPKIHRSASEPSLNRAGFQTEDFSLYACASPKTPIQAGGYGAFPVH
T8 sequence (P29317 24-976): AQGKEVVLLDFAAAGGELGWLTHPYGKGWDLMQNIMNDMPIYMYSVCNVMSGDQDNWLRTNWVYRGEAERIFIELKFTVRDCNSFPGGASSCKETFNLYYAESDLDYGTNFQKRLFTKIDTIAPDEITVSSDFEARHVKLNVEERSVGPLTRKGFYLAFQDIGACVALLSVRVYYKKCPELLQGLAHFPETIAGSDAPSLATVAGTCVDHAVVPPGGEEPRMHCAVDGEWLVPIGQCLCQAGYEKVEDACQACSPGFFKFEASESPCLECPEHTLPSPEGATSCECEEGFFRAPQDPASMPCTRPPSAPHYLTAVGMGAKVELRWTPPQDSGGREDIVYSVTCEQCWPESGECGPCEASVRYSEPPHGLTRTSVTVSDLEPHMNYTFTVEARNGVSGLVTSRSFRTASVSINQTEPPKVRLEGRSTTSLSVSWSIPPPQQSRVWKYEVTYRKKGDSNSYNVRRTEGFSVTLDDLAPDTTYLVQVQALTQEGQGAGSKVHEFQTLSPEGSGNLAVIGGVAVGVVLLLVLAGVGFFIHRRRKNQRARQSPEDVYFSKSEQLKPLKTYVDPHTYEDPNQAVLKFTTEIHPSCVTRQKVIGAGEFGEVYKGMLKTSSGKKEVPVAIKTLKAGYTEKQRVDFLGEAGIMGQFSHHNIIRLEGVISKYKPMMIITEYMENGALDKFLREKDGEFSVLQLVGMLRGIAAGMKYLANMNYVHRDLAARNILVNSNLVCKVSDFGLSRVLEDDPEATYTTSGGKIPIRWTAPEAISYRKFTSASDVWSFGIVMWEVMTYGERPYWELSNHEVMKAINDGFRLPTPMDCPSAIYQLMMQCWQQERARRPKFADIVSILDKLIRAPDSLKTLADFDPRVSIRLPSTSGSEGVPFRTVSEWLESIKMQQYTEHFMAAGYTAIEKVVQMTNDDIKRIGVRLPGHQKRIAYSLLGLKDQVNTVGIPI

As for `Cc1ccc(C(=O)Nc2ccc(CN3CCN(C)CC3)c(C(F)(F)F)c2)cc1C#Cc1cnc2c(Nc3cnn(C)c3)cccn12` [Example 1, 4-methyl-3-((8-((1-methyl-1H-pyrazol-4-yl)amino)imidazo[1,2-a]pyridin-3-yl)ethynyl)-N-(4-((4-methylpiperazin-1-yl)methyl)-3-(trifluoromethyl)phenyl)benzamide], the remaining binding at 1 µM came to 71% in experiment [1]; 0% in experiment [2]; 98% in experiment [3]; 1% in experiment [4]; 64% in experiment [5]; 2% in experiment [6]. Moreover, the remaining binding at 1 µM in experiment [7] came to 24%; in experiment [8], 2%; in [9] it was 18%; in [10] it was 82%.

With `Cc1cn(-c2cc(NC(=O)c3ccc(C)c(C#Cc4cnc5c(Nc6cnn(C)c6)cccn45)c3)cc(C(F)(F)F)c2)cn1` [Example 12, 4-methyl-N-(3-(4-methyl-1H-imidazol-1-yl)-5-(trifluoromethyl)phenyl)-3-((8-((1-methyl-1H-pyrazol-4-yl)amino)imidazo[1,2-a]pyridin-3-yl)ethynyl)benzamide], the remaining binding at 1 µM in [1] came out at 82%; in experiment [2], 1%; in experiment [3], 88%; in [4] it was 1%; in experiment [5], 85%; in [6], 28%. Moreover, the remaining binding at 1 µM in experiment [7] was found to be 94%; in experiment [8], 9%; in [9], 80%; in [10], 92%.

As to `Cc1ccc(NC(=O)C2(C(=O)Nc3ccc(F)cc3)CC2)cc1C#Cc1cnc2c(Nc3cnn(C(C)C)c3)cccn12` [Example 78], the remaining binding at 1 µM in experiment [1] came out at 100%; in [2], 0%; in [3], 100%; in experiment [4] it was 21%; in experiment [5], 100%; in experiment [6], 100%. Also, the remaining binding at 1 µM in experiment [7] was determined as 100%; in experiment [8], 91%; in [9] it was 100%; in experiment [10], 100%.
